Among the test systems are 786-0; ACHN; EKVX; HCC 2998; HOP-62; K562; LOX IMVI; MDA-MB-435; Malme-3M; NCI-H23; NCI/ADR-RES; OVCAR-4; OVCAR-8; SF-539; SK-MEL-28; SR; T47D; U-251; UACC-62; SK-OV-3.
What all share (experiment): growth of human tumour cells (NCI), 48 h

Structures are written as SMILES.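 Protocol summary: plate cells (96-well), add compound at 5 concentrations, incubate 48 h, interpolate endpoints linearly. GI50: concentration for 50% inhibition of growth.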 Calls of active or inactive are those of the source. No stated cut-off is given here; in the data, active = GI50 up to about 1.1 µM and inactive = higher.

On to `CCOC(=O)N[C@H]1CCc2cc(OC)c(OC)c(OC)c2-c2ccc(SC)c(=O)cc21`, for which the GI50 with 786-0 was < 0.01 µM (active); in the assay with ACHN, < 0.01 µM (active); with EKVX, 29.9 µM (inactive); with HCC 2998 it was < 0.01 µM (active); with HOP-62, < 0.01 µM (active); with K562, < 0.01 µM (active). The GI50 in the assay with LOX IMVI was < 0.01 µM (active); in the assay on MDA-MB-435 it was < 0.01 µM (active); with Malme-3M it was < 0.01 µM (active); with NCI-H23 it was < 0.01 µM (active); with NCI/ADR-RES it was 0.0228 µM (active); with OVCAR-4, 16 µM (inactive). The GI50 was < 0.01 µM (active) in the assay on OVCAR-8; < 0.01 µM (active) in the assay on SF-539; 0.746 µM (active) with SK-MEL-28; < 0.01 µM (active) in the assay on SR; > 54.6 µM (inactive) with T47D; < 0.01 µM (active) in the assay with U-251. In addition, the GI50 in the assay on UACC-62 was < 0.01 µM (active).

For the compound `COc1ccc2nc3ccccc3c(NCCCN(C)CCCl)c2c1`, the GI50 is 0.104 µM (active) with 786-0; 0.105 µM (active) in the assay on ACHN; 0.938 µM (active) in the assay with EKVX; 0.388 µM (active) with HCC 2998; 0.959 µM (active) in the assay with HOP-62; 0.136 µM (active) with K562. Further, the GI50 is 0.138 µM (active) in the assay with LOX IMVI; 0.298 µM (active) in the assay with MDA-MB-435; 0.449 µM (active) in the assay with Malme-3M; 0.135 µM (active) in the assay with NCI-H23; 0.313 µM (active) with NCI/ADR-RES; 0.324 µM (active) in the assay with OVCAR-4. Also, the GI50 in the assay with OVCAR-8 was 0.142 µM (active); in the assay with SF-539, 0.249 µM (active); in the assay with SK-MEL-28, 0.521 µM (active); in the assay with SK-OV-3 it was 0.406 µM (active); with SR, < 0.0128 µM (active); in the assay with T47D, 0.0358 µM (active). The GI50 is 0.287 µM (active) in the assay on U-251 and 0.23 µM (active) with UACC-62.

Take `COC(=O)NC(Cc1ccccc1)NC(C)=O` (stereo unspecified): the GI50 in the assay with 786-0, in the assay with ACHN, in the assay with EKVX, with HCC 2998, in the assay on HOP-62 and with K562 was > 100 µM (inactive) throughout. The GI50 in the assay on LOX IMVI, with MDA-MB-435, in the assay on Malme-3M, in the assay with NCI-H23, with NCI/ADR-RES and in the assay on OVCAR-4 was > 100 µM (inactive) each time. In addition, the GI50 with OVCAR-8, with SF-539, with SK-MEL-28, in the assay with SK-OV-3, with SR and in the assay on T47D was > 100 µM (inactive) each time. In addition, the GI50 in the assay with U-251 and with UACC-62 was > 100 µM (inactive) throughout.

Consider `CN(C)c1ccc(/C=N\NC(=O)c2ccccc2Nc2ccccc2C(=O)N/N=C/c2ccc(N(C)C)cc2)cc1`, for which the GI50 in the assay with 786-0, in the assay with ACHN, in the assay with EKVX, in the assay on HCC 2998, with HOP-62 and in the assay with K562 was > 100 µM (inactive) each time. Besides, the GI50 with LOX IMVI was 92.9 µM (inactive); in the assay with MDA-MB-435, > 100 µM (inactive); in the assay on Malme-3M it was 38.5 µM (inactive); with NCI-H23 it was > 100 µM (inactive); in the assay with NCI/ADR-RES it was > 100 µM (inactive); with OVCAR-4, > 100 µM (inactive). Further, the GI50 is > 100 µM (inactive) with OVCAR-8; 20 µM (inactive) with SF-539; 90.4 µM (inactive) in the assay with SK-MEL-28; > 100 µM (inactive) in the assay with SK-OV-3; > 100 µM (inactive) in the assay on SR; > 100 µM (inactive) with T47D. Also, the GI50 with U-251 and with UACC-62 was > 100 µM (inactive) each time.

Regarding `COc1ccc2cc(C(=O)NCCc3ccccc3)ccc2c1OC`, the GI50 with 786-0 was 39.4 µM (inactive); in the assay on ACHN, > 100 µM (inactive); in the assay with EKVX, > 100 µM (inactive); in the assay on HCC 2998, 34.8 µM (inactive); with HOP-62, 32.1 µM (inactive); with K562 it was 83.6 µM (inactive). The GI50 with LOX IMVI was > 100 µM (inactive); in the assay with MDA-MB-435 it was > 100 µM (inactive); with Malme-3M, > 100 µM (inactive); in the assay on NCI-H23, > 100 µM (inactive); in the assay on NCI/ADR-RES it was 84.3 µM (inactive); in the assay with OVCAR-4, > 100 µM (inactive). Further, the GI50 with OVCAR-8 is 79.6 µM (inactive); with SF-539, 32.2 µM (inactive); in the assay with SK-MEL-28, > 100 µM (inactive); with SK-OV-3 it was 65.3 µM (inactive); in the assay on SR, 49.9 µM (inactive); in the assay on T47D, 26.5 µM (inactive). The values for the GI50 in the assay with U-251 and in the assay with UACC-62 were 33 µM (inactive) and > 100 µM (inactive), respectively.

Regarding `COc1ccc(CNc2ccn(C3OC(CO)C(O)C3O)c(=O)n2)cc1` (stereo unspecified), the GI50 was > 100 µM (inactive) with 786-0; > 100 µM (inactive) in the assay on ACHN; 73.5 µM (inactive) with EKVX; 48.8 µM (inactive) in the assay on HCC 2998; > 100 µM (inactive) in the assay with HOP-62; 34.8 µM (inactive) in the assay with K562. Besides, the GI50 was > 100 µM (inactive) with LOX IMVI; 44.8 µM (inactive) in the assay with MDA-MB-435; > 100 µM (inactive) with Malme-3M; 88.7 µM (inactive) in the assay on NCI-H23; > 100 µM (inactive) in the assay with NCI/ADR-RES; 37.2 µM (inactive) with OVCAR-4. The GI50 with OVCAR-8 was > 100 µM (inactive); with SF-539, > 100 µM (inactive); in the assay on SK-MEL-28, > 100 µM (inactive); with SK-OV-3, > 100 µM (inactive); in the assay on SR, > 100 µM (inactive); with T47D, 25.4 µM (inactive). The GI50 in the assay on U-251 was > 100 µM (inactive); in the assay with UACC-62, 74.5 µM (inactive).

Regarding `CC(=O)Nc1nc(C)c(S(=O)(=O)NC(=O)N2c3ccccc3CCc3ccccc32)s1`, the GI50 in the assay on 786-0, in the assay with ACHN, with EKVX, with HCC 2998, in the assay with HOP-62 and in the assay with K562 was > 100 µM (inactive) each time. In addition, the GI50 in the assay with LOX IMVI, in the assay on MDA-MB-435, in the assay with Malme-3M, with NCI-H23, in the assay on NCI/ADR-RES and in the assay with OVCAR-4 was > 100 µM (inactive) throughout. Besides, the GI50 in the assay on OVCAR-8, in the assay with SF-539, in the assay with SK-MEL-28, in the assay with SK-OV-3, in the assay on SR and in the assay on T47D was > 100 µM (inactive) each time. In addition, the GI50 with U-251 and with UACC-62 was > 100 µM (inactive) throughout.

As for `CSC(CC(=O)O)C(=O)O` (stereo unspecified), the GI50 with 786-0 is > 100 µM (inactive); in the assay on ACHN, > 100 µM (inactive); in the assay on EKVX, > 100 µM (inactive); in the assay on HCC 2998, 12.5 µM (inactive); in the assay with HOP-62 it was > 100 µM (inactive); with LOX IMVI, > 100 µM (inactive). Also, the GI50 in the assay on MDA-MB-435, with Malme-3M, with NCI-H23, in the assay on NCI/ADR-RES, with OVCAR-4 and with OVCAR-8 was > 100 µM (inactive) in each case. Further, the GI50 with SF-539, in the assay with SK-MEL-28, with SK-OV-3, in the assay with SR, in the assay on T47D and in the assay on U-251 was > 100 µM (inactive) each time. For the same compound, the GI50 in the assay on UACC-62 is > 100 µM (inactive).

For `COC(=O)C1=Nc2c(C)nn(-c3ccccc3)c2N=C(c2ccc([N+](=O)[O-])cc2)C1`, the GI50 in the assay with 786-0, in the assay on ACHN, in the assay with HCC 2998, in the assay with HOP-62, in the assay on K562 and with LOX IMVI was > 10 µM (inactive) each time. In addition, the GI50 in the assay with MDA-MB-435, with Malme-3M, in the assay with NCI-H23, in the assay with NCI/ADR-RES, in the assay with OVCAR-4 and with OVCAR-8 was > 10 µM (inactive) in each case. Further, the GI50 with SF-539, with SK-MEL-28, in the assay on SK-OV-3, in the assay on SR, in the assay with T47D and with U-251 was > 10 µM (inactive) throughout. The GI50 in the assay on UACC-62 was > 10 µM (inactive).

Take `COC(=O)C1CC23CCCN4CCC5(c6ccccc6N(C=O)C15CC2)C43` (stereo unspecified): the GI50 in the assay on 786-0, in the assay on ACHN, with EKVX, in the assay on HCC 2998, in the assay on HOP-62 and with LOX IMVI was > 100 µM (inactive) each time. In addition, the GI50 in the assay on MDA-MB-435, in the assay on Malme-3M, in the assay on NCI-H23, with NCI/ADR-RES, with OVCAR-4 and in the assay with OVCAR-8 was > 100 µM (inactive) throughout. Moreover, the GI50 with SF-539, in the assay with SK-MEL-28, in the assay with SK-OV-3, in the assay with SR, with T47D and in the assay on U-251 was > 100 µM (inactive) throughout. Further, the GI50 with UACC-62 is > 100 µM (inactive).
